Patent US10065990B2, “Cyclic peptide compound, and preparation method, pharmaceutical composition and use thereof” (HANGZHOU GUANYU BIO-MEDICAL CO., LTD, priority 2013, dated 2018)
Like-named read-outs stand apart in the source and are kept apart here.

Tests used:
HDAC7 = target: T1, HDAC7 (Homo sapiens, UniProt Q8WUI4); test: HDAC biochemical activity measurement (fluorescent substrate deacetylation);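 further: fluorogenic deacetylation assay using acetyl-lysine substrate at 20 µM, enzyme and compound incubated 30 min at 37 °C, then developer added, fluorescence read at 360/460 nm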; details: HDAC7; 37° C. 30 minutes
T1 sequence (Q8WUI4 1-952): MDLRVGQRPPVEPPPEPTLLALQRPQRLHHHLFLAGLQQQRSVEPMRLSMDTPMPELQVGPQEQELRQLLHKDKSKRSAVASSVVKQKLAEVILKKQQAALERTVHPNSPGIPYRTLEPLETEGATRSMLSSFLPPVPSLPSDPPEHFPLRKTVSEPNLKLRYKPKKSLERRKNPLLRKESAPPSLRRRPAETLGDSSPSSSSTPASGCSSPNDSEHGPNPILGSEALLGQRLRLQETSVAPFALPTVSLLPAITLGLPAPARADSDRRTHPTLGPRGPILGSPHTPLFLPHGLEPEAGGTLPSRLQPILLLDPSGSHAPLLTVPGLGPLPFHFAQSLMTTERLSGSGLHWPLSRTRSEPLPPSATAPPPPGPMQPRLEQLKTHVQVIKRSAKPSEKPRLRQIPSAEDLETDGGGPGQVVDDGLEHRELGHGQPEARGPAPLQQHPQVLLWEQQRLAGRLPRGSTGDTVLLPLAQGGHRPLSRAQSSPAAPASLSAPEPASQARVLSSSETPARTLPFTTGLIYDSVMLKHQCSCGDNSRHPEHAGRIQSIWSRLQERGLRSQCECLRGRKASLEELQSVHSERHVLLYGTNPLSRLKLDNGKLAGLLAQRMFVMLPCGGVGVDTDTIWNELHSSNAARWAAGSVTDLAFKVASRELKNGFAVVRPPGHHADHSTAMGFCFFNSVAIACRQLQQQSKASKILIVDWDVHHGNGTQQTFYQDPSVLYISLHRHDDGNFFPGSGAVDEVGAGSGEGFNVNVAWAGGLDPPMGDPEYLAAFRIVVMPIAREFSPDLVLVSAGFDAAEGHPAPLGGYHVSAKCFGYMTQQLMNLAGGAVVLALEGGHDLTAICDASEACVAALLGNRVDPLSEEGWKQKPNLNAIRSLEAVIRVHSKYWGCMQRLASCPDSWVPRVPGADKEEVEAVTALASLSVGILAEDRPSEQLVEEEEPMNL

[1] = test system: BGC-823 (human gastric cancer cells); test: MTT cancer cell growth inhibition; type: cell-based; details: Homo sapiens, BGC-823, 72 h, MTT, 72 hours incubation, read-out: GI50 BG
Outline: (§1)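 GI50 values come from viability measured by MTT reduction at 570 nm. Plated overnight at 1500 cells per well, cultures received drug in three parallel wells across 10^−5–10^−10 M final and were incubated 72 h at 37° C. under 5% CO2 before MTT for 4 h.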

[2] = test system: Huh-7 (human hepatoma cells); test: MTT cancer cell growth inhibition; type: cell-based; details: Homo sapiens, Huh-7, 72 h, MTT, 72 hours incubation, Huh-7 cells; read-out: GI50 Huh-7
Outline: as §1

[3] = test system: KBM5-T315I (human chronic myelogenous leukemia); test: MTT cancer cell growth inhibition; type: cell-based; details: Homo sapiens, 72 h, MTT, 72 hours incubation, KBM5-T315I cells; read-out: GI50 KBM5-T315I
Outline: as §1

[4] = test system: MOLT-4 (human acute lymphoblastic leukemia cells); test: MTT cancer cell growth inhibition; type: cell-based; details: Homo sapiens, MOLT-4, 72 h, MTT, 72 hours incubation, read-out: GI50 Mol
Outline: as §1

[5] = test system: K562 (human leukemia cells); test: MTT cancer cell growth inhibition; type: cell-based; details: Homo sapiens, K562, 72 h, MTT, 72 hours incubation, K562 cells; read-out: GI50 K562
Outline: as §1

[6] = test system: Hela (human cervical cancer cells); test: MTT cancer cell growth inhibition; type: cell-based; details: Homo sapiens, HeLa, 72 h, MTT, 72 hours incubation, read-out: GI50 Hela
Outline: as §1

[7] = test system: PANC-1 (Pac-1, human pancreatic cancer cells); test: MTT cancer cell growth inhibition; type: cell-based; details: Homo sapiens, PANC-1, 72 h, MTT, 72 hours incubation, read-out: GI50 PAN
Outline: as §1

[8] = test system: U937 (human leukemia cells); test: MTT cancer cell growth inhibition; type: cell-based; details: Homo sapiens, U-937, 72 h, MTT, 72 hours incubation, read-out: GI50 U93
Outline: as §1

[9] = test system: Bel-7402 (human hepatoma cells); test: MTT cancer cell growth inhibition; type: cell-based; details: Homo sapiens, Bel-7402, 72 h, MTT, 72 hours incubation, Bel-7402 cells; read-out: GI50 Bel-7402
Outline: as §1

[10] = test system: A549 (human lung cancer cells); test: MTT cancer cell growth inhibition; type: cell-based; details: Homo sapiens, A549, 72 h, MTT, 72 hours incubation, read-out: GI50 A54
Outline: as §1

[11] = test system: H1975 (non-small cell lung adenocarcinoma); test: MTT cancer cell growth inhibition; type: cell-based; details: Homo sapiens, NCI-H1975, 72 h, MTT, 72 hours incubation, H1975 cells; read-out: GI50 H1975
Outline: as §1

[12] = test system: MDA-MB-231 (breast cancer cells); test: MTT cancer cell growth inhibition; type: cell-based; details: Homo sapiens, MDA-MB-231, 72 h, read-out: GI50 MDA-MB-231, MTT, 72 hours incubation, MDA-MB-231 cells
Outline: as §1

[13] = test system: HT1080 (human fibrosarcoma cells); test: MTT cancer cell growth inhibition; type: cell-based; details: Homo sapiens, HT-1080, 72 h, MTT, 72 hours incubation, read-out: GI50 HT1
Outline: as §1

[14] = test system: DU145 (human prostate cancer cells); test: MTT cancer cell growth inhibition; type: cell-based; details: Homo sapiens, DU-145, 72 h, MTT, 72 hours incubation, read-out: GI50 Du1
Outline: as §1

[15] = test system: KBM-5 (human chronic myelogenous leukemia); test: MTT cancer cell growth inhibition; type: cell-based; details: Homo sapiens, KBM5, 72 h, MTT, 72 hours incubation, KBM-5 cells; read-out: GI50 KBM-5
Outline: as §1

[16] = test system: HCC827 (human non-small cell lung cancer cells); test: MTT cancer cell growth inhibition; type: cell-based; details: Homo sapiens, HCC827, 72 h, MTT, 72 hours incubation, HCC827 cells; read-out: GI50 HCC827
Outline: as §1

[17] = test system: N-87 (human gastric cancer cells); test: MTT cancer cell growth inhibition; type: cell-based; details: Homo sapiens, 72 h, MTT, 72 hours incubation, N-87 cells; read-out: GI50 N-87
Outline: as §1

[18] = test system: lncap (prostate cancer cells); test: MTT cancer cell growth inhibition; type: cell-based; details: Homo sapiens, LNCaP, 72 h, MTT, 72 hours incubation, read-out: GI50 lnca
Outline: as §1

[19] = test system: MCF-7 (human breast cancer cells); test: MTT cancer cell growth inhibition; type: cell-based; details: Homo sapiens, MCF7, 72 h, 72 hours incubation, read-out: GI50 MCF
Outline: as §1

[20] = test system: SGC-7901 (human gastric cancer cells); test: MTT cancer cell growth inhibition; type: cell-based; details: Homo sapiens, SGC-7901, 72 h, MTT, 72 hours incubation, SGC-7901 cells; read-out: GI50 SGC-7901
Outline: as §1

Compound	IC50 HDAC7 (HDAC7)	GI50 ([1]; BGC-823 cells) [nM]	GI50 [2] [nM]	GI50 [3] [nM]	GI50 ([4]; MOLT-4 cells) [nM]	GI50 [5] [nM]	GI50 ([6]; Hela cells) [nM]	GI50 ([7]; PANC-1 cells) [nM]	GI50 ([8]; U937 cells) [nM]	GI50 [9] [nM]	GI50 ([10]; A549 cells) [nM]	GI50 [11] [nM]	GI50 [12] [nM]	GI50 ([13]; HT1080 cells) [nM]	GI50 ([14]; DU145 cells) [nM]	GI50 [15] [nM]	GI50 [16] [nM]	GI50 [17] [nM]	GI50 ([18]; lncap cells) [nM]	GI50 [20] [nM]	also measured
C/C=C1\NC(=O)c2nc(ccc2SC)CNC(=O)C[C@@H](/C=C/CCSC(C)=O)OC(=O)[C@H](CCCCNC(=O)OCC2c3ccccc3-c3ccccc32)NC1=O [Compound 195]	no activity	20	45	43	20	81	60	30	50	54	90	38	91	30	50	26	79	42	90	14	GI50 ([19]; MCF-7 cells): 30 nM
C/C=C1\NC(=O)c2ccc(SC)c(n2)CNC(=O)C[C@@H](/C=C/CCSC(=O)CCC)OC(=O)[C@H](C(C)C)NC1=O [Compound 161]	no activity	20	79	12	30	31	10	10	60	47	80	57	46	50	20	13	65	37	70	91	GI50 ([19]; MCF-7 cells): 70 nM
C=C1NC(=O)c2ccc(SC)c(n2)CNC(=O)C[C@@H](/C=C/CCSC(C)=O)OC(=O)[C@H](C)NC1=O [Compound 212]	no activity	60	57	37	70	35	20	50	60	39	40	62	97	30	30	69	48	35	80	84	GI50 ([19]; MCF-7 cells): 70 nM
C=C1NC(=O)c2ccc(F)c(n2)CNC(=O)C[C@@H](/C=C/CCS)OC(=O)[C@H](C(C)C)NC1=O [Compound 134]	no activity		92	61		38				29		54	63			31	35	41		27	GI50 [1]: 170 nM; GI50 [4]: 50 nM; GI50 [6]: 40 nM; GI50 [7]: 130 nM; GI50 [8]: 50 nM; GI50 [10]: 30 nM; GI50 [13]: 70 nM; GI50 [14]: 50 nM; GI50 [18]: 100 nM; GI50 [19]: 80 nM
C/C=C1\NC(=O)c2ccc(SC)c(n2)CNC(=O)C[C@@H](/C=C/CCSC(=O)CCCC)OC(=O)[C@H](C(C)C)NC1=O [Compound 158]	no activity	30	41	27	80	48	60	20	40	45	30	49	46	70	60	46	91	38	40	27	GI50 ([19]; MCF-7 cells): 20 nM
C/C=C1\NC(=O)c2nc(ccc2SC)CNC(=O)C[C@@H](/C=C/CCSC(=O)CCCC)OC(=O)[C@H](C(C)C)NC1=O [Compound 156]	no activity	50	35	33	10	31	30	50	20	23	30	18	63	80	80	17	43	65	30	45	GI50 ([19]; MCF-7 cells): 20 nM
